According to ChEMBL document CHEMBL1139717, “Solid-phase combinatorial approach for the optimization of soluble epoxide hydrolase inhibitors” (Bioorg Med Chem Lett, 2006):
Blank lines part the entries; values can stand above or below the compound they belong to.

Assays:
[1] = molecular target: T1, Bifunctional epoxide hydrolase 2 (Homo sapiens, UniProt P34913); test: Inhibition of human recombinant soluble epoxide hydrolase by kinetic fluorescent assay
T1 sequence (P34913 whole entry): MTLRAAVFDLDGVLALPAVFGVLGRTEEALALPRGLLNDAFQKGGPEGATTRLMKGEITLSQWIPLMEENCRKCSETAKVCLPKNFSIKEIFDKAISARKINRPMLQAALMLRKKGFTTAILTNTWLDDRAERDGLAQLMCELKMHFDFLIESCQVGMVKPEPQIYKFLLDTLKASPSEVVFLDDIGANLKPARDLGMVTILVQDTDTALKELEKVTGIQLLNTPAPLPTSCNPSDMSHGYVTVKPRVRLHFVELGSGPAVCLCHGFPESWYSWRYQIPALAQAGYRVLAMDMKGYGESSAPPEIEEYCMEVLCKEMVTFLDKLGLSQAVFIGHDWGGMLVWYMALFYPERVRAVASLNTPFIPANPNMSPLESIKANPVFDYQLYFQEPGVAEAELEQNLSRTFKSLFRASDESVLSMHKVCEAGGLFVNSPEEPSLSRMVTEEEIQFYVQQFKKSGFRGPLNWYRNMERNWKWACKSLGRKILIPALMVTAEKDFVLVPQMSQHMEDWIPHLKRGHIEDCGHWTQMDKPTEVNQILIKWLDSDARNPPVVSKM

[2] = molecular target: T2, Bifunctional epoxide hydrolase 2 (Homo sapiens) (UniProt P34913); test: Inhibition of human recombinant soluble epoxide hydrolase at 100 nM by end-point fluorescent assay
T2 sequence (whole entry): T1 sequence (P34913 whole entry)

SMILES: COC(=O)c1ccc(NC(=O)N[C@H]2CC[C@@H](Oc3ccc(F)cc3)CC2)cc1
IC50 [1]: 2.9 nM | inhibition [2]: 62%

SMILES: CC(C)c1cccc(C(C)C)c1NC(=O)N[C@H]1CC[C@@H](Oc2ccc(F)cc2)CC1
IC50 [1]: 50500 nM | inhibition [2]: 5%

SMILES: COC(=O)c1cccc(NC(=O)N[C@H]2CC[C@@H](Oc3ccc(F)cc3)CC2)c1
IC50 [1]: 2 nM | inhibition [2]: 72%

SMILES: C[C@@H](NC(=O)NC12CC3CC(CC(C3)C1)C2)c1ccccc1
IC50 [1]: 100 nM | inhibition [2]: 10%

SMILES: O=C(Nc1ccccc1OC(F)(F)F)N[C@H]1CC[C@@H](Oc2ccc(F)cc2)CC1
IC50 [1]: 100 nM | inhibition [2]: 2%

SMILES: O=C(Nc1cccc(C(=O)O)c1)N[C@H]1CC[C@@H](Oc2ccc(F)cc2)CC1
IC50 [1]: 590 nM

SMILES: Cc1cccc(C)c1NC(=O)N[C@H]1CC[C@@H](Oc2ccc(F)cc2)CC1
IC50 [1]: 1200 nM | inhibition [2]: 4%

SMILES: O=C(Nc1c(Cl)cccc1Cl)N[C@H]1CC[C@@H](Oc2ccc(F)cc2)CC1
IC50 [1]: 940 nM | inhibition [2]: 1%

SMILES: O=C(Nc1ccc(OC(F)(F)F)cc1)N[C@H]1CC[C@@H](Oc2ccc(F)cc2)CC1
inhibition [2]: 84%

SMILES: CN(C)c1cccc2c(S(=O)(=O)NCCNC(=O)NC34CC5CC(CC(C5)C3)C4)cccc12
IC50 [1]: 30 nM | inhibition [2]: 19%

Second part, the compound after the results:

IC50 [1]: 1.2 nM | inhibition [2]: 82%
SMILES: O=C(Nc1ccc(C(F)(F)F)cc1)N[C@H]1CC[C@@H](Oc2ccc(F)cc2)CC1

IC50 [1]: 1 nM | inhibition [2]: 76%
SMILES: O=C(Nc1ccc(I)cc1)N[C@H]1CC[C@@H](Oc2ccc(F)cc2)CC1

IC50 [1]: 0.5 nM | inhibition [2]: 87%
SMILES: O=C(NC1CCCCCC1)N[C@H]1CC[C@@H](Oc2ccc(F)cc2)CC1

IC50 [1]: 0.6 nM | inhibition [2]: 80%
SMILES: O=C(Nc1ccc(Br)cc1)N[C@H]1CC[C@@H](Oc2ccc(F)cc2)CC1

IC50 [1]: 0.7 nM | inhibition [2]: 81%
SMILES: O=C(Nc1ccc(Cl)cc1)N[C@H]1CC[C@@H](Oc2ccc(F)cc2)CC1
